Key:
Assay type in all cases: in vivo
[1] = test system: Apogee wheat; assay: Heat stress tolerance in wheat following ACC application at Feekes stage 5 (Example 2); settings: heat stress 34/28° C. 4 days
Experimental: Apogee wheat was seeded into ProMix BX (Premier Horticulture) and grown in a growth cabinet under the following conditions: 24/18° C. day/night temperature under a 16/8 hour light/dark photoperiod. Plants were evaluated at Feekes stage 5 following the first set of growth conditions on Nov. 15, 2019. Next, spray applications of 0, 0 or 100 ppm ACC (n=8) were made using a track sprayer. Next, 2 days following treatment, one set of control plants (“treatment control”) and the 100 ppm ACC plants were transferred to a second growth cabinet at 34/28° C. day/night temperature under a 16/8-hour light/dark photoperiod for 4 days. These conditions constitute significant heat stress. The other set of control plants (“stress control”) remained in the first growth cabinet. Finally, the plants were then returned to the first growth cabinet for about 14 days where plants reached Feekes stage 10.1 (head emergence). Plants were then destructively harvested and measured for total spike number, fresh weight, total reproductive tiller number, percent reproductive tillers, A canopy density and total dry weight. Percent reproductive tillers is calculated by dividing the number of reproductive tillers by the total number of spikes at harvest. A canopy density is calculated by subtracting the canopy density at treatment from the canopy density at harvest.

[2] = test system: Williams 82 soybean; assay: Heat stress tolerance in soybean following ACC application; settings: heat stress 34/30° C. six days; for Canopy Density / Fresh Weight / Height / Total Dry Weight / Δ Canopy Density: n = 5; for Canopy Density, percent increase over stress control / Fresh Weight, percent increase over stress control / Height, percent increase over stress control / Total Dry Weight, percent increase over stress control / Δ Canopy Density, percent increase over stress control: vs stress control; for Canopy Density, percent increase over treatment control / Fresh Weight, percent increase over treatment control / Height, percent increase over treatment control / Total Dry Weight, percent increase over treatment control / Δ Canopy Density, percent increase over treatment control: vs treatment control
Experimental: Williams 82 soybean was seeded into ProMix BX (Premier Horticulture) and grown in a greenhouse. […] Next, spray applications of […] (n=5) were made using a track sprayer on Oct. 9, 2020. Following spraying, plants were moved to a growth cabinet under the following conditions: 24/18 C day night temperatures under a 16/8 light dark period. Next, 3 days following treatment, half of the plants were transferred to a second growth cabinet at 34/30° C. day/night temperature under a 16/8-hour light/dark photoperiod for six days. These conditions constitute early season heat stress. Plants were then destructively harvested and measured for fresh weight, canopy density, Δ canopy density, total dry weight and height.

[3] = test system: dwarf variety of Brassica napus; assay: Heat stress tolerance in Brassica napus following ACC application; settings: heat stress 36/30° C. seven days; for Seed Number per Pod / Seed Yield per Pod / Single Seed Weight: n = 10; for Seed Number per Pod, percent increase over treatment control / Seed Yield per Pod, percent increase over treatment control / Single Seed Weight, percent increase over treatment control: vs treatment control
Experimental: A dwarf variety of Brassica napus commonly used as an experimental model for the canola variety of B. napus was seeded into ProMix BX (Premier Horticulture) and grown in a greenhouse. […] Following spraying, plants were moved to a growth cabinet under the following conditions: 24/18 C day night temperatures under a 16/8 light dark period. Next, 2 days following treatment, half of the plants were transferred to a second growth cabinet at 36/30° C. day/night temperature under a 16/8-hour light/dark photoperiod for seven days. These conditions constitute early season heat stress. At all times flowers and pods were pruned to keep the number of pods to about 10. Plants were then destructively harvested and measured for seed yield, seed numbers, seed yield per pod, seed number per pod and single seed weight.

[4] = 100 ppm ACC spray at Feekes stage 5, n = 8
[5] = 100 ppm ACC, vs stress control (no heat)
[6] = 100 ppm ACC, vs treatment control (heat, no ACC)

NC1(C(=O)O)CC1 [ACC, 1-amino-1-cyclopropanecarboxylic acid]
% Reproductive Tillers [1, 4]: 89.60% | Fresh Weight [1, 4]: 9.18 grams | Total Dry Weight [1, 4]: 2.12 grams | Total Spike Number [1, 4]: 3.13 | Total Tiller Number [1, 4]: 2.75 | Δ Canopy Density [1, 4]: 1.52 | Fresh Weight, percent increase over stress control [1, 5]: (−18.8%) | Total Dry Weight, percent increase over stress control [1, 5]: (−16.9%) | Total Spike Number, percent increase over stress control [1, 5]: (−7.1%) | Total Tiller Number, percent increase over stress control [1, 5]: (−12.1%) | % Reproductive Tillers, percent increase over treatment control [1, 6]: [43.4%] | Fresh Weight, percent increase over treatment control [1, 6]: [19.2%] | Total Dry Weight, percent increase over treatment control [1, 6]: [7.6%] | Total Spike Number, percent increase over treatment control [1, 6]: [−3.7%] | Total Tiller Number, percent increase over treatment control [1, 6]: [37.5%] | Δ Canopy Density, percent increase over treatment control [1, 6]: [42.1%] | Canopy Density ([2]; 10 ppm ACC spray at V1): 13.24 | Fresh Weight ([2]; 10 ppm ACC spray at V1): 19.85 grams | Height ([2]; 10 ppm ACC spray at V1): 41.07 cm | Total Dry Weight ([2]; 10 ppm ACC spray at V1): 3.15 grams | Δ Canopy Density ([2]; 10 ppm ACC spray at V1): 7.77 | Canopy Density, percent increase over stress control ([2]; 10 ppm ACC): (83.9%) | Fresh Weight, percent increase over stress control ([2]; 10 ppm ACC): (32.8%) | Height, percent increase over stress control ([2]; 10 ppm ACC): (30.1%) | Total Dry Weight, percent increase over stress control ([2]; 10 ppm ACC): (18.9%) | Δ Canopy Density, percent increase over stress control ([2]; 10 ppm ACC): (256.4%) | Canopy Density, percent increase over treatment control ([2]; 10 ppm ACC): [13.6%] | Fresh Weight, percent increase over treatment control ([2]; 10 ppm ACC): [6.5%] | Height, percent increase over treatment control ([2]; 10 ppm ACC): [7.9%] | Total Dry Weight, percent increase over treatment control ([2]; 10 ppm ACC): [6.8%] | Δ Canopy Density, percent increase over treatment control ([2]; 10 ppm ACC): [22.4%] | Canopy Density ([2]; 30 ppm ACC spray at V1): 12.68 | Fresh Weight ([2]; 30 ppm ACC spray at V1): 20.33 grams | Height ([2]; 30 ppm ACC spray at V1): 38.25 cm | Total Dry Weight ([2]; 30 ppm ACC spray at V1): 3.25 grams | Δ Canopy Density ([2]; 30 ppm ACC spray at V1): 7.19 | Canopy Density, percent increase over stress control ([2]; 30 ppm ACC): (76.1%) | Fresh Weight, percent increase over stress control ([2]; 30 ppm ACC): (36.0%) | Height, percent increase over stress control ([2]; 30 ppm ACC): (21.1%) | Total Dry Weight, percent increase over stress control ([2]; 30 ppm ACC): (22.6%) | Δ Canopy Density, percent increase over stress control ([2]; 30 ppm ACC): (229.8%) | Canopy Density, percent increase over treatment control ([2]; 30 ppm ACC): [8.7%] | Fresh Weight, percent increase over treatment control ([2]; 30 ppm ACC): [9.1%] | Height, percent increase over treatment control ([2]; 30 ppm ACC): [0.5%] | Total Dry Weight, percent increase over treatment control ([2]; 30 ppm ACC): [10.2%] | Δ Canopy Density, percent increase over treatment control ([2]; 30 ppm ACC): [13.2%] | Canopy Density ([2]; 100 ppm ACC spray at V1): 10.90 | Fresh Weight ([2]; 100 ppm ACC spray at V1): 19.25 grams | Height ([2]; 100 ppm ACC spray at V1): 37.95 cm | Total Dry Weight ([2]; 100 ppm ACC spray at V1): 3.08 grams | Δ Canopy Density ([2]; 100 ppm ACC spray at V1): 5.36 | Canopy Density, percent increase over stress control ([2]; 100 ppm ACC): (51.4%) | Fresh Weight, percent increase over stress control ([2]; 100 ppm ACC): (28.8%) | Height, percent increase over stress control ([2]; 100 ppm ACC): (20.2%) | Total Dry Weight, percent increase over stress control ([2]; 100 ppm ACC): (16.2%) | Δ Canopy Density, percent increase over stress control ([2]; 100 ppm ACC): (145.9%) | Canopy Density, percent increase over treatment control ([2]; 100 ppm ACC): [−6.5%] | Fresh Weight, percent increase over treatment control ([2]; 100 ppm ACC): [3.3%] | Height, percent increase over treatment control ([2]; 100 ppm ACC): [−0.3%] | Total Dry Weight, percent increase over treatment control ([2]; 100 ppm ACC): [4.4%] | Δ Canopy Density, percent increase over treatment control ([2]; 100 ppm ACC): [−15.6%] | Seed Number per Pod ([3]; 10 ppm ACC spray at flowering): 14.8 | Seed Yield per Pod ([3]; 10 ppm ACC spray at flowering): 0.029 grams | Single Seed Weight ([3]; 10 ppm ACC spray at flowering): 0.0019 grams | Seed Number per Pod, percent increase over treatment control ([3]; 10 ppm ACC): [6.5%] | Seed Yield per Pod, percent increase over treatment control ([3]; 10 ppm ACC): [0%] | Single Seed Weight, percent increase over treatment control ([3]; 10 ppm ACC): [−9.5%] | Seed Number per Pod ([3]; 30 ppm ACC spray at flowering): 15.1 | Seed Yield per Pod ([3]; 30 ppm ACC spray at flowering): 0.033 grams | Single Seed Weight ([3]; 30 ppm ACC spray at flowering): 0.0021 grams | Seed Number per Pod, percent increase over treatment control ([3]; 30 ppm ACC): [8.6%] | Seed Yield per Pod, percent increase over treatment control ([3]; 30 ppm ACC): [13.8%] | Single Seed Weight, percent increase over treatment control ([3]; 30 ppm ACC): [0%] | Seed Number per Pod ([3]; 100 ppm ACC spray at flowering): 17.4 | Seed Yield per Pod ([3]; 100 ppm ACC spray at flowering): 0.036 grams | Single Seed Weight ([3]; 100 ppm ACC spray at flowering): 0.0020 grams | Seed Number per Pod, percent increase over treatment control ([3]; 100 ppm ACC): [25.2%] | Seed Yield per Pod, percent increase over treatment control ([3]; 100 ppm ACC): [24.1%] | Single Seed Weight, percent increase over treatment control ([3]; 100 ppm ACC): [−4.8%] | Seed Number per Pod ([3]; 300 ppm ACC spray at flowering): 15.6 | Seed Yield per Pod ([3]; 300 ppm ACC spray at flowering): 0.030 grams | Single Seed Weight ([3]; 300 ppm ACC spray at flowering): 0.0019 grams | Seed Number per Pod, percent increase over treatment control ([3]; 300 ppm ACC): [12.2%] | Seed Yield per Pod, percent increase over treatment control ([3]; 300 ppm ACC): [3.4%] | Single Seed Weight, percent increase over treatment control ([3]; 300 ppm ACC): [−9.5%]

Reference: US11304419B2, “Methods to induce heat stress tolerance in plants” (Valent BioSciences LLC, priority 2020, dated 2022)
